Measured values from ChEMBL document CHEMBL1201862, “PubChem BioAssay data set” (2004).
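Results reflect a 48-hour exposure of cells in 96-well plates to compound at five concentrations. Here, GI50 denotes the concentration required for 50% inhibition of growth.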 Calls of active or inactive are those of the source. No stated cut-off is given here; in the data, active = GI50 up to about 1.1 µM and inactive = higher.

How the values were obtained:
Assay in all cases: inhibition of tumour cell growth, NCI panel, 48 h
786-0 = system: 786-0
A498 = system: A498
A549 = system: A549
ACHN = system: ACHN
CAKI-1 = system: CAKI-1
CCRF-CEM = system: CCRF-CEM
COLO 205 = system: COLO 205
DLD-1 = system: DLD-1
DMS-273 = system: DMS-273
EKVX = system: EKVX
HCC 2998 = system: HCC 2998
HCT-116 = system: HCT-116
HCT-15 = system: HCT-15
HL-60 = system: HL-60
HOP-18 = system: HOP-18
HOP-62 = system: HOP-62
HOP-92 = system: HOP-92
HT-29 = system: HT-29
IGROV-1 = system: IGROV-1
K562 = system: K562
KM-20L2 = system: KM-20L2
KM12 = system: KM12
LOX IMVI = system: LOX IMVI
LXFL 529 = system: LXFL 529
M14 = system: M14
M19-MEL = system: M19-MEL
MOLT-4 = system: MOLT-4
Malme-3M = system: Malme-3M
NCI-H226 = system: NCI-H226
NCI-H23 = system: NCI-H23
NCI-H460 = system: NCI-H460
NCI-H522 = system: NCI-H522
OVCAR-3 = system: OVCAR-3
OVCAR-4 = system: OVCAR-4
OVCAR-5 = system: OVCAR-5
OVCAR-8 = system: OVCAR-8
RPMI-8226 = system: RPMI-8226
RXF 393 = system: RXF 393
SF-268 = system: SF-268
SF-295 = system: SF-295
SF-539 = system: SF-539
SK-MEL-28 = system: SK-MEL-28
SK-MEL-2 = system: SK-MEL-2
SK-MEL-5 = system: SK-MEL-5
SK-OV-3 = system: SK-OV-3
SN12C = system: SN12C
SNB-19 = system: SNB-19
SNB-75 = system: SNB-75
SNB-78 = system: SNB-78
SW-620 = system: SW-620
TK-10 = system: TK-10
U-251 = system: U-251
UACC-257 = system: UACC-257
UACC-62 = system: UACC-62
UO-31 = system: UO-31

C[n+]1ccc2[nH]c3ccccc3c2c1
GI50 (786-0): > 100 µM (inactive) | GI50 (A498): 90.2 µM (inactive) | GI50 (A549): > 100 µM (inactive) | GI50 (ACHN): > 100 µM (inactive) | GI50 (CAKI-1): > 100 µM (inactive) | GI50 (CCRF-CEM): > 100 µM (inactive) | GI50 (COLO 205): > 100 µM (inactive) | GI50 (DLD-1): > 100 µM (inactive) | GI50 (DMS-273): > 100 µM (inactive) | GI50 (EKVX): > 100 µM (inactive) | GI50 (HCC 2998): > 100 µM (inactive) | GI50 (HCT-116): 48.6 µM (inactive) | GI50 (HCT-15): > 100 µM | GI50 (HL-60): > 100 µM (inactive) | GI50 (HOP-18): > 45 µM (inactive) | GI50 (HOP-62): > 52.8 µM (inactive) | GI50 (HOP-92): > 100 µM (inactive) | GI50 (HT-29): > 100 µM (inactive) | GI50 (IGROV-1): > 100 µM (inactive) | GI50 (K562): > 100 µM (inactive) | GI50 (KM-20L2): > 100 µM (inactive) | GI50 (KM12): 77.1 µM (inactive) | GI50 (LOX IMVI): > 100 µM (inactive) | GI50 (LXFL 529): > 100 µM (inactive) | GI50 (M14): > 100 µM (inactive) | GI50 (M19-MEL): > 100 µM (inactive) | GI50 (MOLT-4): 38.8 µM (inactive) | GI50 (Malme-3M): 35.6 µM (inactive) | GI50 (NCI-H226): 61 µM (inactive) | GI50 (NCI-H23): > 100 µM (inactive) | GI50 (NCI-H460): > 77.4 µM (inactive) | GI50 (NCI-H522): > 100 µM (inactive) | GI50 (OVCAR-3): > 100 µM (inactive) | GI50 (OVCAR-4): > 100 µM (inactive) | GI50 (OVCAR-5): > 58.3 µM (inactive) | GI50 (OVCAR-8): > 100 µM (inactive) | GI50 (RPMI-8226): > 100 µM (inactive) | GI50 (RXF 393): > 100 µM (inactive) | GI50 (SF-268): > 100 µM (inactive) | GI50 (SF-295): > 100 µM (inactive) | GI50 (SF-539): > 100 µM (inactive) | GI50 (SK-MEL-28): > 100 µM (inactive) | GI50 (SK-MEL-2): > 100 µM (inactive) | GI50 (SK-MEL-5): > 78.3 µM (inactive) | GI50 (SK-OV-3): > 100 µM (inactive) | GI50 (SN12C): > 100 µM (inactive) | GI50 (SNB-19): > 100 µM (inactive) | GI50 (SNB-75): > 100 µM (inactive) | GI50 (SNB-78): > 100 µM (inactive) | GI50 (SW-620): > 86.3 µM (inactive) | GI50 (TK-10): > 100 µM (inactive) | GI50 (U-251): > 100 µM (inactive) | GI50 (UACC-257): > 100 µM (inactive) | GI50 (UACC-62): > 100 µM (inactive) | GI50 (UO-31): > 100 µM (inactive)
